What was measured:
[1] = tested on: antibodies in sera from SARS patients (sera 1a, 1b, 2, 6, 37, 62, London, SARS-yellow, SARS-green); type: binding, human; design: Binding of serum 6 to linear peptides of protein X1 of SARS-CoV Urbani / Binding of serum 37 to linear peptides of protein X1 of SARS-CoV Urbani / Binding of serum 6 to looped/cyclic peptide (PEPSCAN-ELISA) / Binding of serum 37 to looped/cyclic peptide (PEPSCAN-ELISA) / Binding of serum 37 to looped/cyclic peptides of protein X1 of SARS-CoV Urbani / Binding of serum 6 to linear peptides of protein X2 / Binding of serum 37 to linear peptides of protein X2 / Binding of serum 37 to looped/cyclic peptides of protein X2 of SARS-CoV Urbani / Binding of serum 6 to linear peptides of protein M of SARS-CoV Urbani / Binding of serum 37 to linear peptides of protein M of SARS-CoV Urbani / Binding of serum 6 to looped/cyclic peptides of protein M of SARS-CoV Urbani / Binding of serum 37 to looped/cyclic peptides of protein M of SARS-CoV Urbani / Binding of serum 6 to linear peptides of protein X3 of SARS-CoV Urbani / Binding of serum 37 to linear peptides of protein X3 of SARS-CoV Urbani / Binding of serum 37 to looped/cyclic peptides of protein X3 of SARS-CoV Urbani / Binding of serum 6 to linear peptides of protein X4 of SARS-CoV Urbani / Binding of serum 37 to linear peptides of protein X4 of SARS-CoV Urbani / Binding of serum 37 to looped/cyclic peptides of protein X4 of SARS-CoV Urbani / Binding of serum 6 to linear peptides of protein X5 of SARS-CoV Urbani / Binding of serum 37 to linear peptides of protein X5 of SARS-CoV Urbani / Binding of serum 37 to looped/cyclic peptides of protein X5 of SARS-CoV Urbani / Binding of serum 6 to linear peptides of protein N of SARS-CoV Urbani / Binding of serum 37 to linear peptides of protein N of SARS-CoV Urbani / Binding of serum 6 to linear peptide (PEPSCAN-ELISA) / Binding of serum 1a to looped/cyclic peptides of protein N of SARS-CoV Urbani / Binding of serum 1b to looped/cyclic peptides of protein N of SARS-CoV Urbani / Binding of serum 2 to looped/cyclic peptides of protein N of SARS-CoV Urbani / Binding of serum 6 to looped/cyclic peptides of protein N of SARS-CoV Urbani / Binding of serum 37 to looped/cyclic peptides of protein N of SARS-CoV Urbani / Binding of serum 62 to looped/cyclic peptides of protein N of SARS-CoV Urbani / Binding of serum London to looped/cyclic peptides of protein N of SARS-CoV Urbani / Binding of serum SARS-green to looped/cyclic peptides of protein N of SARS-CoV Urbani: unit not given here
[2] = tested on: control sera (pooled serum of ten healthy LUMC hospital workers; commercial negative donor pooled serum from the Dutch bloodbank); type: binding, human; design: Binding of Control serum LUMC to linear peptides / Binding of Control serum Blood-bank to linear peptides / Binding of Control serum LUMC to looped peptides / Binding of Control Serum Blood-Bank to Looped peptides / Binding of Control serum LUMC to linear peptides of the protein M of SARS-CoV Urbani / Binding of Control serum Blood-bank to linear peptides of the protein M of SARS-CoV Urbani / Binding of Control serum LUMC to looped peptides of the protein M of SARS-CoV Urbani / Binding of Control Serum Blood-Bank to Looped peptides of the protein M of SARS-CoV Urbani: unit not given here
[3] = tested on: rabbit serum obtained by immunizing a rabbit with the SARS-CoV strain Frankfurt 1; type: binding; design: Binding of a rabbit serum to linear peptides / Binding of a rabbit serum to looped peptides / Rabbit serum linear peptides / Rabbit serum looped peptides / Binding of a rabbit serum to linear peptides of protein N of SARS-CoV Urbani (Rabbit serum linear peptides) / Binding of a rabbit serum to looped/cyclic peptides of protein N of SARS-CoV Urbani (Rabbit serum looped peptides): unit not given here

TAAFRDVLVVLNKRT
Binding of serum 1a to linear peptides of protein X5 of SARS-CoV Urbani [1]: 0.5
Binding of serum 1a to looped/cyclic peptides of protein X5 of SARS-CoV Urbani [1]: 0.7
Binding of serum 1b to linear peptides of protein X5 of SARS-CoV Urbani [1]: 0.6
Binding of serum 1b to looped/cyclic peptides of protein X5 of SARS-CoV Urbani [1]: 0.6
Binding of serum 2 to linear peptides of protein X5 of SARS-CoV Urbani [1]: 0.6
Binding of serum 2 to looped/cyclic peptides of protein X5 of SARS-CoV Urbani [1]: 0.7
Binding of serum 6 to linear peptides of protein X5 of SARS-CoV Urbani [1]: 0.6
Binding of serum 6 to looped/cyclic peptides of protein X5 of SARS-CoV Urbani [1]: 0.9
Binding of serum 37 to linear peptides of protein X5 of SARS-CoV Urbani [1]: 0.5
Binding of serum 37 to looped/cyclic peptides of protein X5 of SARS-CoV Urbani [1]: 0.6
Binding of serum 62 to linear peptides of protein X5 of SARS-CoV Urbani [1]: 0.5
Binding of serum 62 to looped/cyclic peptides of protein X5 of SARS-CoV Urbani [1]: 0.6
Binding of serum London to linear peptides of protein X5 of SARS-CoV Urbani [1]: 0.5
Binding of serum London to looped/cyclic peptides of protein X5 of SARS-CoV Urbani [1]: 1.1
Binding of serum SARS-green to linear peptides of protein X5 of SARS-CoV Urbani [1]: 0.2
Binding of serum SARS-green to looped/cyclic peptides of protein X5 of SARS-CoV Urbani [1]: 0.5
Binding of serum SARS-yellow to linear peptides of protein X5 of SARS-CoV Urbani [1]: 0.7
Binding of serum SARS-yellow to looped/cyclic peptides of protein X5 of SARS-CoV Urbani [1]: 0.5
Binding of Control Serum Blood-Bank to Looped peptides [2]: 0.8
Binding of Control serum Blood-bank to linear peptides [2]: 0.7
Binding of Control serum LUMC to linear peptides [2]: 0.8
Binding of Control serum LUMC to looped peptides [2]: 0.6
Rabbit serum linear peptides [3]: 0.3
Rabbit serum looped peptides [3]: 0.4

CNLLLLFVTIYSHLL
Binding of serum 1a to linear peptides of protein X1 of SARS-CoV Urbani [1]: 0.7
Binding of serum 1a to looped/cyclic peptide (PEPSCAN-ELISA) [1]: 0.5
Binding of serum 1b to linear peptides of protein X1 of SARS-CoV Urbani [1]: 0.5
Binding of serum 1b to looped/cyclic peptide (PEPSCAN-ELISA) [1]: 0.4
Binding of serum 2 to linear peptides of protein X1 of SARS-CoV Urbani [1]: 0.5
Binding of serum 2 to looped/cyclic peptide (PEPSCAN-ELISA) [1]: 0.4
Binding of serum 6 to linear peptides of protein X1 of SARS-CoV Urbani [1]: 0.4
Binding of serum 6 to looped/cyclic peptide (PEPSCAN-ELISA) [1]: 0.3
Binding of serum 37 to linear peptides of protein X1 of SARS-CoV Urbani [1]: 0.6
Binding of serum 37 to looped/cyclic peptide (PEPSCAN-ELISA) [1]: 0.5
Binding of serum 62 to linear peptides of protein X1 of SARS-CoV Urbani [1]: 0.4
Binding of serum 62 to looped/cyclic peptide (PEPSCAN-ELISA) [1]: 0.5
Binding of serum London to linear peptides of protein X1 of SARS-CoV Urbani [1]: 0.2
Binding of serum London to looped/cyclic peptide (PEPSCAN-ELISA) [1]: 0.2
Binding of serum SARS-green to linear peptides of protein X1 of SARS-CoV Urbani [1]: 0.1
Binding of serum SARS-green to looped/cyclic peptide (PEPSCAN-ELISA) [1]: 0.2
Binding of serum SARS-yellow to linear peptides of protein X1 of SARS-CoV Urbani [1]: 0.4
Binding of serum SARS-yellow to looped/cyclic peptide (PEPSCAN-ELISA) [1]: 0.4
Binding of Control Serum Blood-Bank to Looped peptides [2]: 0.5
Binding of Control serum Blood-bank to linear peptides [2]: 0.4
Binding of Control serum LUMC to linear peptides [2]: 0.4
Binding of Control serum LUMC to looped peptides [2]: 0.5
Binding of a rabbit serum to linear peptides [3]: 0.1
Binding of a rabbit serum to looped peptides [3]: 0.6

LKMLHSSSLTSLLKT
Binding of serum 1a to linear peptides of protein X2 [1]: 0.6
Binding of serum 1a to looped/cyclic peptides of protein X2 of SARS-CoV Urbani [1]: 0.5
Binding of serum 1b to linear peptides of protein X2 [1]: 0.5
Binding of serum 1b to looped/cyclic peptides of protein X2 of SARS-CoV Urbani [1]: 0.5
Binding of serum 2 to linear peptides of protein X2 [1]: 0.6
Binding of serum 2 to looped/cyclic peptides of protein X2 of SARS-CoV Urbani [1]: 0.3
Binding of serum 6 to linear peptides of protein X2 [1]: 0.4
Binding of serum 6 to looped/cyclic peptides of protein X2 of SARS-CoV Urbani [1]: 0.3
Binding of serum 37 to linear peptides of protein X2 [1]: 0.6
Binding of serum 37 to looped/cyclic peptides of protein X2 of SARS-CoV Urbani [1]: 0.4
Binding of serum 62 to linear peptides of protein X2 [1]: 0.6
Binding of serum 62 to looped/cyclic peptides of protein X2 of SARS-CoV Urbani [1]: 0.6
Binding of serum London to linear peptides of protein X2 [1]: 0.5
Binding of serum London to looped/cyclic peptides of protein X2 of SARS-CoV Urbani [1]: 0.2
Binding of serum SARS-green to linear peptides of protein X2 [1]: 0.5
Binding of serum SARS-green to looped/cyclic peptides of protein X2 of SARS-CoV Urbani [1]: 0.3
Binding of serum SARS-yellow to linear peptides of protein X2 [1]: 0.6
Binding of serum SARS-yellow to looped/cyclic peptides of protein X2 of SARS-CoV Urbani [1]: 0.2
Binding of Control Serum Blood-Bank to Looped peptides [2]: 0.6
Binding of Control serum Blood-bank to linear peptides [2]: 0.7
Binding of Control serum LUMC to linear peptides [2]: 0.4
Binding of Control serum LUMC to looped peptides [2]: 0.5
Binding of a rabbit serum to linear peptides [3]: 0.2
Binding of a rabbit serum to looped peptides [3]: 0.4

HKLLQTLVLKMLHSS
Binding of serum 1a to linear peptides of protein X2 [1]: 0.5
Binding of serum 1a to looped/cyclic peptides of protein X2 of SARS-CoV Urbani [1]: 0.6
Binding of serum 1b to linear peptides of protein X2 [1]: 0.5
Binding of serum 1b to looped/cyclic peptides of protein X2 of SARS-CoV Urbani [1]: 0.6
Binding of serum 2 to linear peptides of protein X2 [1]: 0.4
Binding of serum 2 to looped/cyclic peptides of protein X2 of SARS-CoV Urbani [1]: 0.4
Binding of serum 6 to linear peptides of protein X2 [1]: 0.2
Binding of serum 6 to looped/cyclic peptides of protein X2 of SARS-CoV Urbani [1]: 0.4
Binding of serum 37 to linear peptides of protein X2 [1]: 0.5
Binding of serum 37 to looped/cyclic peptides of protein X2 of SARS-CoV Urbani [1]: 0.5
Binding of serum 62 to linear peptides of protein X2 [1]: 0.5
Binding of serum 62 to looped/cyclic peptides of protein X2 of SARS-CoV Urbani [1]: 0.7
Binding of serum London to linear peptides of protein X2 [1]: 0.4
Binding of serum London to looped/cyclic peptides of protein X2 of SARS-CoV Urbani [1]: 0.3
Binding of serum SARS-green to linear peptides of protein X2 [1]: 0.4
Binding of serum SARS-green to looped/cyclic peptides of protein X2 of SARS-CoV Urbani [1]: 0.3
Binding of serum SARS-yellow to linear peptides of protein X2 [1]: 0.5
Binding of serum SARS-yellow to looped/cyclic peptides of protein X2 of SARS-CoV Urbani [1]: 0.5
Binding of Control Serum Blood-Bank to Looped peptides [2]: 0.7
Binding of Control serum Blood-bank to linear peptides [2]: 0.6
Binding of Control serum LUMC to linear peptides [2]: 0.4
Binding of Control serum LUMC to looped peptides [2]: 0.7
Binding of a rabbit serum to linear peptides [3]: 0.2
Binding of a rabbit serum to looped peptides [3]: 0.4

LLLFVTIYSHLLLVA
Binding of serum 1a to linear peptides of protein X1 of SARS-CoV Urbani [1]: 0.7
Binding of serum 1a to looped/cyclic peptide (PEPSCAN-ELISA) [1]: 0.5
Binding of serum 1b to linear peptides of protein X1 of SARS-CoV Urbani [1]: 0.5
Binding of serum 1b to looped/cyclic peptide (PEPSCAN-ELISA) [1]: 0.3
Binding of serum 2 to linear peptides of protein X1 of SARS-CoV Urbani [1]: 0.6
Binding of serum 2 to looped/cyclic peptide (PEPSCAN-ELISA) [1]: 0.4
Binding of serum 6 to linear peptides of protein X1 of SARS-CoV Urbani [1]: 0.3
Binding of serum 6 to looped/cyclic peptide (PEPSCAN-ELISA) [1]: 0.2
Binding of serum 37 to linear peptides of protein X1 of SARS-CoV Urbani [1]: 0.5
Binding of serum 37 to looped/cyclic peptide (PEPSCAN-ELISA) [1]: 0.5
Binding of serum 62 to linear peptides of protein X1 of SARS-CoV Urbani [1]: 0.4
Binding of serum 62 to looped/cyclic peptide (PEPSCAN-ELISA) [1]: 0.4
Binding of serum London to linear peptides of protein X1 of SARS-CoV Urbani [1]: 0.2
Binding of serum London to looped/cyclic peptide (PEPSCAN-ELISA) [1]: 0.2
Binding of serum SARS-green to linear peptides of protein X1 of SARS-CoV Urbani [1]: 0.0
Binding of serum SARS-green to looped/cyclic peptide (PEPSCAN-ELISA) [1]: 0.2
Binding of serum SARS-yellow to linear peptides of protein X1 of SARS-CoV Urbani [1]: 0.3
Binding of serum SARS-yellow to looped/cyclic peptide (PEPSCAN-ELISA) [1]: 0.4
Binding of Control Serum Blood-Bank to Looped peptides [2]: 0.5
Binding of Control serum Blood-bank to linear peptides [2]: 0.4
Binding of Control serum LUMC to linear peptides [2]: 0.4
Binding of Control serum LUMC to looped peptides [2]: 0.5
Binding of a rabbit serum to linear peptides [3]: 0.1
Binding of a rabbit serum to looped peptides [3]: 0.5

Source: patent US20070128217A1 (priority 2003, published 2007)
